Experimental data published in patent US20060057673A1, “Epitope analogs” (priority 2004, published 2006).
Where a SMILES comes first, the peptide text is derived from it. [ ]: non-standard residue; d: D form. Cha = N[C@@H](CC1CCCCC1)C(=O)O

Key:
HLA-A*0201 [1] = molecular target: T1, HLA-A*0201 (Homo sapiens, UniProt P04439, D140Y/D185E/D98H/E176V/E277Q/G131W/G231S/I119V/I121R/I166T/I218V/L300P/L318F/N151K/N90K/P208A/P217A/Q86G/Q94H/R138H/R169H/T345S); experiment: Peptide binding using T2 cells; design: endogenous in cells; host or cells: T2 cells; conditions: T2 cells pulsed overnight at 37° C.; peptide concentration giving 50% of saturation signal; N/B printed, not defined
HLA-A*0201 [2] = molecular target: T1, HLA-A*0201; experiment: iTopia binding assay (% binding); conditions: % binding compared to positive control melan-A26-35 A27L
From the text: Avidin-coated microtiter plates containing class I monomer loaded with a so-called placeholder peptide were used to evaluate peptide binding, affinity and off-rate. The monomer-coated plates were supplied as part of the iTopia Epitope Discovery System Kit (Beckman Ciulter, Inc., San Diego, Calif., USA). Assay buffers, anti-MHC-FITC mAb and beta2-microglobulin and control peptides were also supplied with the kits.
This assay measures the ability of individual peptides to bind HLA molecules under standardized optimal binding conditions. Monomer-coated plates were first stripped, releasing the placeholder peptide and leaving only the MHC heavy chain bound to the plate. Test peptides were then introduced under optimal folding conditions, along with the anti-MRC-FITC mAb. Plates were incubated for 18hrs at 21° C. The anti-MHC-FITC mAb binds preferentially to a refolded MHC complex. Therefore, the fluorescence intensity resulted from each peptide was related to the peptide's ability to form complex with MHC molecule. Each peptide's binding was evaluated relative to the positive control peptide provided in the kit, and the results were expressed ‘% binding’.

[3] = test system: target cells loaded with native PRAME425-433 peptide; experiment: In vivo cytotoxicity against native PRAME peptide coated splenocytes (CFSE); design: species or system HHD transgenic mice; conditions: plasmid prime, peptide boost

| Half-maximal Binding (mM) (HLA-A*0201 [1]) | Compound | % binding relative to native PRAME425-433 (HLA-A*0201 [2]) | In vivo cytotoxicity against native PRAME epitope [3] |
| --- | --- | --- | --- |
| N/B | CC[C@H](C)[C@H](NC(=O)[C@H](CCCCN)NC(=O)[C@H](CCC(=O)O)NC(=O)[C@H](CO)NC(=O)[C@H](Cc1cccc2ccccc12)NC(=O)[C@@H](N)CCCCN)C(=O)N[C@@H](Cc1ccccc1)C(=O)N[C@@H](Cc1ccc(O)cc1)C(=O)N[C@H](C(=O)O)C(C)C [SSX2 41-49 (A42(Nal-1)), KNal-1SEKIFYV] |  |  |
|  | Phe P1 analog: PRAME425-433 (SLLQHLIGL) analog, Phe for the Ser at the P1 position (FLLQHLIGL) | exceeded that range on the high side | capable of expanding the immunity against the native epitope |
| N/B | CC[C@H](C)[C@H](NC(=O)[C@H](CCCCN)NC(=O)[C@H](CCC(=O)O)NC(=O)[C@H](CO)NC(=O)[C@H](C)NC(=O)[C@@H](N)CC1CCCCC1)C(=O)N[C@@H](Cc1ccccc1)C(=O)N[C@@H](Cc1ccc(O)cc1)C(=O)N[C@H](C(=O)O)C(C)C [SSX2 41-49 (K41(Cha))] (H-[Cha]ASEKIFYV-OH) |  |  |
